Experimental data: patent US20050100888A1, “Methods based on hormone dependency of primary cancer cells” (Imperial College Innovations Limited, priority 2002, published 2005)

What was measured:
estrogen receptor (ER) [1] = assay: viral ER reporter in ER negative breast cancer cell lines; type: cell-based, human; settings: virus 100:1
Experimental: FIG. 3: Reporter activity in variety of estrogen receptor alpha positive (MCF-7, T47-D, ZR75-1, BT474) and negative (Cal-51, SkBr3, and MDA-MB231 cell lines). For each figure, the order is as follows: (1) refers to the no ligand control.
For adenovirus infections, cell lines were plated in 96 wells at the given density in phenol red free DMEM supplemented with 5% double-stripped serum (PR/5% DSS). The following day cells were exposed to the given quantity of plaque forming units per cell (multiplicity of infection, MOI) in PR/SF medium. This was incubated at 37° C. for 1 hour after which the media was replaced by PR free/5% DSS containing the ligands.
(§1) Reporter Gene Assay 48 hours after virus infection, 20 ul of 20% Triton in PBS was added to each well and incubated at RT for 10 minutes. […] (CRPG) made up in TBS at a concentration of 8 mg/ml was then added to the wells and the plate was incubated, foil-wrapped, at 37° C. until a colour change was observed. Plate readings were taken at a wavelength of 547 nm.
We went on to test the virus reporter in a variety of ER positive and ER negative cell lines. Again 0.5×10^5 cells were infected with 100 virus per cell (100:1). Using the GFP virus it was evident that the infectability of the cell lines was variable. […]

estrogen receptor (ER) [2] = assay: adeno-reporter assay in purified primary breast cancer cells (tumour, lymph node); type: cell-based, human; settings: for Reporter response: E2 10 nM, OHT 100 nM, ICI 100 nM, 48 h
Experimental: The product was then filtered through a nylon mesh (Lockertex Ltd, Merseyside, UK) and the filtrate centrifuged at 2000 rpm, at room temperature (RT). The pellet was re-suspended in 9 mls of RPMI/1% FCS and a cell count performed to estimate the number of tumour cells in the preparation. […] A count of viable tumour cells was performed using trypan blue (Sigma, Poole, UK) prior to seeding in breast complete medium (DMEM/F-12 containing, 15 mM Hepes, 2 mM L-glutamine, 100U/ml penicillin, O. 1 mg/ml streptomycin, 50 U/ml polymixin B, 2.5 μg/ml amphotericin B, 5 μg/ml insulin, 10 μg/ml apo-transferrin, 100 μM ethanolamine, 1 μg/ml hydrocortisone, 10 ng/ml EGF) plus 5% FCS) for culture. The cells were used for experiments on day 3 after the initial plating.
(§2) For infections of primary cells, 6-10,000 cells/well were allowed and exposed to the given quantity of virus, after which they were pelleted and re-supended in 200 ul of PR free/5% DSS medium containing the appropriate ligands prior to plating into 96-well plates.
Cells were incubated for 48 hours following infections unless stated otherwise.
as §1
We have used the adeno-reporter to infect purified cells from breast cancer and lymph nodes of 19 patients. The reporter assay was performed in a blinded fashion since the IHC report of ER status was not available until after the experiments were complete. Viral infections were performed in suspension so as not to loose cancer cells since they were only loosely adherent. Following exposure to the virus for an hour, the cells were washed to remove excess virus and then plated and incubated in PR free/5% DSS supplemented with the given ligands for 48 hours.

estrogen receptor (ER) [3] = assay: adenoERreporter assay in breast cancer cells from metastatic effusions (pleural, ascites); type: cell-based, human
Source text: In the case of metastatic fluid, 100 mls of the fluid was sent for cytological examination and staining for ER and PR. The remaining fluid was centrifuged and the cell pellets were pooled. This was re-suspended in RPMI-1640/1% FCS and tumour cell numbers estimated as before. If the cells were in clusters, trypsin/EDTA (Sigma, Poole, UK) was used to obtain single cell suspensions before filtering to remove any debris. The remaining steps were as above. The purified cells were either infected immediately or cultured for a few days prior to infection.
as §2, §1
(§3) We purified breast cancer cells from metastatic fluid, both pleural and ascites as well as fine needle aspirates (FNA) from recurrent breast cancer. These cells were counted and infected with adenoERreporter and after 48 hours a β-gal assay was performed. We have infected 9 metastatic effusions including 2 cell lines of passage number two, derived from pleural effusions and 4 FNAs. Tables 3 and 4 show the treatment history and characteristics of the patients that provided the samples. Where possible, some of the fluid was sent for cytology and ER staining.

estrogen receptor (ER) [4] = assay: adenoERreporter assay in fine needle aspirates (FNA) from recurrent breast cancer; type: cell-based, human
Experimental: Cells obtained from FNAs were collected in PBS (Sigma, Poole, UK) containing 2% FCS. If the aspirate was bloody, erythrocyte lysis buffer (0.155M NH4Cl, 10 mM KHCO3, 0.1 mM EDTA, pH 7.4) was used to lyse the red blood cells and after a further wash with PBS, the cells were re-suspended in culture media for counting and immediate infections.
as §2, §1
as §3, with “staining. However, this was not always feasible due to the variability of cancer cells in the metastatic fluid.” for “staining.”

[5] = test system: malignant mammary epithelial cells; assay: effects of estradiol and tamoxifen on survival of purified malignant mammary epithelial cells (Trypan blue counts); type: cell-based, human; settings: for effect on cell death: ER positive purified breast cancer cells, E2 10 nM, OHT 100 nM
Experimental: (§4) 1×10^5 cells were plated into the wells of 96 well plates. […] Total and viable (Trypan blue) cell counts were measured during the time course of the experiment.
(§5) Normal cells were studied at several time points whereas due to limited number of cells, studies were limited to 2 time points in tumors. Trypan Blue staining determined viable cell numbers.

[6] = test system: normal mammary epithelial cells; assay: effects of estrogen and tamoxifen on purified normal mammary epithelial cells; type: cell-based, human; settings: purified normal breast cells
Experimental: Cell viability was assessed using exclusion of Trypan blue staining. Proliferation of cells in culture was assessed by measuring tritiated thymidine (3HTdR) incorporation into DNA and using the MTS assay. For ^3HTdR-labelling, purified cells were seeded into the wells of 24-well dishes. The medium was subsequently changed for 0.5 ml of ^3HTdR-supplemented thymidine-free medium (RPMI, 2 mM L-glutamine, 100U/ml penicillin, 0.1 mg/ml streptomycin plus dialysed 2% FCS). The amount of incorporated ^3HTdR in the cultures was measured by scintillation counting following precipitation with trichloroacetic acid. MTS assays were carried out using the Cell Titre 96 (Promega, UK), according to manufacturer's protocols.
as §4, §5

ER positive tumours = settings: cited from earlier work
[7] = Table 2 patient 5 Ln, ER+/PR−, Pre
[8] = Table 2 patient 8, ER+++/PR−, Post
[9] = Table 2 patient 12 Tu, Anaplastic small cell carcinoma, ER−/PR−
[10] = Table 2 patient 13, ER−/PR−, Post

| Compound | Reporter response (estrogen receptor (ER) [2]; [7]) | Reporter response (estrogen receptor (ER) [2]; [8]) | Reporter response (estrogen receptor (ER) [2]; Table 2 patient 12 Ln) | Reporter response (estrogen receptor (ER) [2]; [9]) | Reporter response (estrogen receptor (ER) [2]; [10]) | Reporter response (estrogen receptor (ER) [2]; Table 2 patient 15 Ln) | Reporter response (estrogen receptor (ER) [2]; Table 2 patient 15 Tu, ER−/PR−) | Reporter response (estrogen receptor (ER) [2]; Table 2 patient 16 Ln) | Reporter response (estrogen receptor (ER) [2]; Table 2 patient 16 Tu, Post) | Reporter response (estrogen receptor (ER) [2]; Table 2 patient 17) | Reporter response (estrogen receptor (ER) [2]; Table 2 patient 18, ER−/PR−) | effect on cell death [5] | further results |
| --- | --- | --- | --- | --- | --- | --- | --- | --- | --- | --- | --- | --- | --- |
| C[C@]12CC[C@@H]3c4ccc(O)cc4CC[C@H]3[C@@H]1CC[C@@H]2O [E2, 17β-estradiol] | ns | ns | ns | ns | ns | ns | ns | ns | ns | ns | ns | reduction in cell death | effect on ERE driven β-gal reporter / baseline activity (estrogen receptor (ER) [1]): no appreciable effect; stimulatory effect on the reporter above the background activity (estrogen receptor (ER) [3]; ER positive relapsed patients, compared with primary breast tumour): less of a stimulatory effect; Reporter Activity (estrogen receptor (ER) [3]; Table 3 patient 1) T2G2NxM0, PE, primary ER++/PR−, prior Tamoxifen 3y, Lentaron 5m): Ns; Reporter Activity (estrogen receptor (ER) [4]; Table 4 patient 1) T3G2N1M0, FNA ER−/PR−, no prior endocrine treatment): Ns; effect of estrogen on cells ([5]; ER negative breast cancer cells): no effect; expression of estrogen-regulated genes after estrogen exposure [6]: expressing both PR and PS2 |
| CC/C(=C(\c1ccccc1)c1ccc(OCCN(C)C)cc1)c1ccccc1 [tamoxifen] | – | – | – | – | – | – | – | – | – | – | – | reversed | effect on reporter activity across patient samples (estrogen receptor (ER) [2]; purified cells from breast cancer and lymph nodes of 19 patients): inhibitory in most cases but did show some agonistic activity in a proportion of patients; increase in reporter activity in the presence of tamoxifen (estrogen receptor (ER) [3]; patient 1 (Table 3)): approximately 10 fold; response of cells to tamoxifen (estrogen receptor (ER) [3]; patient 3, table 3, previous tamoxifen for one year): continued to respond to tamoxifen; effect on reporter compared with E2 (estrogen receptor (ER) [3]; patient samples 1, 5 and 6 (Table 3) and patient 6 (Table 4), relapsed after tamoxifen): an effect at least equivalent to E2; cell numbers after tamoxifen treatment compared to estradiol treatment ([5]; 7 tumors studied, responders all ER positive, viable counts by Trypan Blue): Four out of the 7 tumors studied showed significant reduction in cell numbers; effect on proliferation [6]: decrease; patients with ERα-positive disease that do not respond (ER positive tumours; breast cancer patients, adjuvant/metastatic treatment): approximately 30%; patients with ER positive tumours that fail to respond (ER positive tumours; primary endocrine therapy (Gazet et al 1987)): ~50% |
| 4-hydroxytamoxifen [4-OHT] | ns | ns | ns | ns | ns | ns | ns | ns | ns | ns | ns | – | effect on ER activity (estrogen receptor (ER) [3]; patient 4 (table 3), ascites, no previous treatment): inhibitory; Reporter Assay: inhibition (estrogen receptor (ER) [4]; FNA summary table, N = 1, IHC ER−/PR−, ?Responder): OHT/ICI inhibit by × 1.8 |
